Source: patent US12728112B2, “Application of sesquiterpene lactone in preparing drug for treating optic neuritis” (ACCENDATECH LUOYANG CO., LTD., priority 2020, dated 2026)
Entries after “also recorded” stand apart in the source; their conditions may differ.

Legend:
[1] = tested on: Lewis rat NMO disease models; test: NMO animal model: NMO patient serum and complement injected intrathecally, behavioral scoring; format: in vivo; details: for Behavioral score: intragastric daily, ACT001 60 mg/kg, hormone 30 mg/kg
Procedure: Meanwhile, before establishing NMO animal models, firstly, the spinal intrathecal catheterization was performed on Lewis rats, wherein an outlet could be placed at the spinal cord and at the first lumbar vertebra of the rat by controlling the length (7 cm) of a PE10 soft tube. For the Lewis rats after spinal intrathecal catheterization, they had no difference in behavior from normal rats the next day after the operation. Successfully modeled rats were divided into three groups, and 10 μL of each of the serum and complement system of an NMO patient was injected into the soft tubes in the rats for which the intubation was successful, and the supplementation was performed every four days. The administration regimen was as follows: the model control group (6 animals) was intragastrically administered normal saline every day for 15 consecutive days; the hormone group (8 animals) was intragastrically administered the methylprednisolone […] for injection every day at a dose of 30 mg/kg for 15 consecutive days; and the ACT001 group (6 animals) was intragastrically administered the ACT001 solution every day at a dose of 60 mg/kg for 15 consecutive days. The animal state was observed daily, and behavioral scores were recorded based on animal symptoms.
10 μL of each of the serum and complement system of an NMO patient was injected into the soft tubes in the rats for which the spinal intrathecal catheterization was successful, and the supplementation was performed every four days, thus establishing the NMO animal models. Model animals were randomized into three groups, namely: the normal saline group, the hormone (methylprednisolone sodium succinate for injection) group and the ACT001 group, and the administration regimen is as follows:
Behavioral scoring was performed based on animal symptoms.
The scoring criteria were as follows: • 0 point: no clinical symptoms; • 1 point: decreased tail tension or mild gait clumsiness; • 2 points: no tail tension or moderate gait abnormality; weakness of both hind limbs and recovery after being turned over passively; • 3 points: paralysis of both hind limbs. no recovery after being turned over passively, but capable of moving after stimulation; • 4 points: paralysis of both hind limbs. paralysis or weakened muscle strength of the forelimbs with urinary and fecal incontinence; • 5 points: moribund state or dead.
Symptoms between two stages were measured as ±0.5.

BV2 cells = test: Proliferation activity of microglial cell BV2 (MTT and CCK8 methods); format: cell-based; details: Mus musculus
Excerpt: We then intended to use ACT001 for treating neuromyelitis optica.

[2] = tested on: IL-6 release by LPS-activated BV-2 cells; test: IL-6 release/expression after LPS activation of BV-2 (ELISA); format: cell-based; details: for IL-6 expression in BV-2 cells: 1 μg/mL LPS
Procedure: (§1) BV2 cells were digested, counted and plated in a 24-well plate at 1 mL and 20,000 cells per well, and the cells were then incubated overnight in an incubator at 5% CO2 and 37° C. 1 μg/mL LPS was added into each well for 1 h of action, and then ACT001 at different concentrations was added. Five experimental groups were set, namely: (1) control group; (2) ACT001-2.5 μM group; (3) ACT001-5 μM group; (4) ACT001-10 μM group; and (5) ACT001-20 μM group. After 8 h of action, the drug action was completed, the supernatant was collected and centrifuged at 12,000 rpm for 20 min, and then ELISA was performed according to the kit instructions.
as §1, with “40,000” for “20,000”, “24” for “8”

[3] = tested on: TNF-α release by LPS-activated BV-2 cells; test: TNF-α release/expression after LPS activation of BV-2 (ELISA); format: cell-based; details: for TNF-α expression in BV-2 cells: 1 μg/mL LPS
Procedure: as §1, with “40,000” for “20,000”, “24” for “8”

[4] = tested on: NO release by LPS-activated BV-2 cells; test: NO release after LPS activation of BV-2; format: cell-based
Excerpt: 5. FIG. 5 is a graph showing the effect of ACT001 on NO expression (*P<0.05, ** P<0.01, *** P<0.001).

[5] = LPS-activated BV-2, ACT001 10 μM, vs control group, fumarate
[6] = LPS-stimulated microglial cells, concentration not given, fumarate

| SMILES | Behavioral score ([1]; day 0 of treatment) [points] | Behavioral score ([1]; day 1 of treatment) [points] | Behavioral score ([1]; day 2 of treatment) [points] | Behavioral score ([1]; day 3 of treatment) [points] | Behavioral score ([1]; day 4 of treatment) [points] | Behavioral score ([1]; day 5 of treatment) [points] | Behavioral score ([1]; day 6 of treatment) [points] | Behavioral score ([1]; day 7 of treatment) [points] | Behavioral score ([1]; day 8 of treatment) [points] | Behavioral score ([1]; day 9 of treatment) [points] | Behavioral score ([1]; day 10 of treatment) [points] | Behavioral score ([1]; day 11 of treatment) [points] | Behavioral score ([1]; day 12 of treatment) [points] | Behavioral score ([1]; day 13 of treatment) [points] | Behavioral score ([1]; day 14 of treatment) [points] | other results |
| --- | --- | --- | --- | --- | --- | --- | --- | --- | --- | --- | --- | --- | --- | --- | --- | --- |
| C[C@H]1C[C@@H]2[C@H]([C@@H](O)C[C@@]3(C)[C@H]2CC[C@]3(O)C(=O)COC(=O)CCC(=O)O)[C@@]2(C)C=CC(=O)C=C12 [Hormone, methylprednisolone sodium succinate, reference compound] | 0.00 ± 0.00 | 0.63 ± 0.64 | 0.50 ± 0.38 | 0.44 ± 0.32 | 0.13 ± 0.23 | 1.75 ± 0.46 | 0.88 ± 0.23 | 0.63 ± 0.35 | 0.38 ± 0.23 | 2.06 ± 0.42 | 2.06 ± 0.42 | 0.88 ± 0.35 | 2.19 ± 0.26 | 2.19 ± 0.59 | 1.00 ± 0.38 | Behavioral score (Table 3, major research results) ([1]; 20 Lewis rats, female, intragastrically once daily for 15 times): group was 2.0 ± 0.3. points; Behavioral score ([1]; day 15 of treatment): 2.31 ± 0.26 points; Behavioral score ([1]; day 15 of treatment, listed as hormone): 2.31±0.26 points |
| CC1=C2CC[C@@](C)(O)[C@@H]2[C@H]2OC(=O)[C@@H](CN(C)C)[C@@H]2CC1.O=C(O)/C=C/C(=O)O [ACT001, (3R,3aS,9R,9aS,9bS)-3-((dimethylamino)methyl)-9-hydroxy-6,9-dimethyl-3,3a,4,5,7,8,9,9a-octahydroazuleno[4,5-b]furan-2(9bH)-one fumarate] | 0.00 ± 0.00 | 0.42 ± 0.20 | 0.17 ± 0.26 | 0.17 ± 0.26 | 0.00 ± 0.00 | 1.17 ± 0.68 | 1.00 ± 0.45 | 0.83 ± 0.68 | 0.33 ± 0.26 | 2.08 ± 0.86 | 1.25 ± 0.61 | 0.50 ± 0.00 | 2.00 ± 0.32 | 1.92 ± 0.38 | 1.17 ± 0.26 | IC50 (BV2 cells; BV-2, MTT/CCK8, read-out: IC50, inhibition of proliferation of BV2 cells): 23.6 µM; IC90 (BV2 cells; BV-2, read-out: IC90, in vitro activity inhibition against BV2 cells): 99.1 ± 10.2 µM; IL-6 expression in BV-2 cells ([2]; ACT001 20 μM, p<0.001 vs control): significantly reduced; IL-6 expression in BV-2 cells ([2]; all ACT001 groups (2.5, 5, 10, 20 μM), dose-dependent trend): reduce IL-6 expression; release/expression of IL-6 [2, 5]: remarkably reduce; also recorded: significantly reduced; release of IL-6 [2, 6]: significantly reduced; TNF-α expression in BV-2 cells ([3]; ACT001 2.5, 5 and 10 μM dose groups, dose-dependent trend (FIG. 4)): reduce TNF-α expression; TNF-α expression in BV-2 cells ([3]; all ACT001 dose groups (2.5-20 μM), p<0.001 vs control (text on FIG. 3)): significantly reduced; release/expression of TNF-α [3, 5]: remarkably reduce; also recorded: significantly reduced; release of TNF-α [3, 6]: significantly reduced; pathological release of microglial cells NO ([4]; ACT001 5 μM (FIG. 5)): significantly could reduce; release of NO ([4]; LPS-activated microglia, ACT001 10 μM): remarkably reduce; release of NO [4, 6]: significantly reduced; tolerance of animals during administration ([1]; ACT001 60 mg/kg intragastric daily, 15 days): well tolerated; disease symptoms / behavioral scores compared to the normal saline control group ([1]; ACT001 60 mg/kg intragastric daily, 15 days, fumarate, 60 mg/kg): significantly alleviated; also recorded: significantly reduce the behavioral scores; also recorded: significantly relieve clinical symptoms; effect compared to the hormone treatment group ([1]; ACT001 60 mg/kg vs methylprednisolone 30 mg/kg, intragastric, 15 days, fumarate): not weaker than that of hormone; also recorded: basically equivalent; Behavioral score ([1]; day 15 of treatment, fumarate): 2.00±0.32 points |
